Measured values as given in US20260234568A1, “TUMOR STORAGE AND CELL CULTURE COMPOSITIONS” (Iovance Biotherapeutics, Inc., priority 2021, published 2026).
Read-outs that look alike come from different tables or passages of the source.

What was measured:
Pre-REP TIL [1] = assay type: cell-based
Method: Phase 1: Small Scale Evaluation of Various Antibiotics in shipping medium and CM1 were conducted in 2 separate rounds using 2 different tumors as shown in Tables 53 and 54. The cultures were terminated after the Pre-REP. All the overnight incubations in HTS included 2.5 μg/mL Amphotericin B (or 10 μg/mL for the “high AmpB concentration” condition) and 50 μg/mL gentamicin
All the test and control conditions were tested in quadruplicates. Total Viable Cells and % Viability was recorded on Day 11 of Pre-REP.

S. aureus [2] = settings: for bacterial growth, visually assessed: S. aureus (strain 1), inoculated tissue fragments, washed 3×, 11 days
Method: Additional experiments were performed to test the ability of vancomycin to prevent growth of vancomycin sensitive bacteria in culture medium. In these experiments, tissue fragments were inoculated in HTS with three different loads of S. aureus and E. faecalis bacteria and the following antibiotics: • a.
The 6 HTS inoculates (iHTS) shown were incubated at 24 hours at 2-8° C. and washed 3× with tumor wash buffer with the same concentrations of antibiotics above. The tumor samples were incubated for 11 days and bacterial growth was visually assessed.

E. faecalis [3] = experiment: Antibiotics on growth of bacteria in culture media (HTS then CM1); assay type: cell-based; settings: HTS 24 hours at 2-8° C., then CM1 11 days, Gentamicin 50 μg/mL, Vancomycin 100 μg/mL
S. aureus [4] = experiment: as above; assay type: cell-based; settings: S. aureus (strain 1), HTS 24 hours at 2-8° C., then CM1 11 days, Gentamicin 50 μg/mL, Vancomycin 100 μg/mL
Method: In these experiments, the following antibiotics were added to Gram+bacteria S. aureus and E. faecalis in hypothermosol (HTS) at three different concentrations of bacteria: • a. Gentamicin (50 μg/mL) • b. […] Vancomycin (100 μg/mL)

Pre-REP TIL [5] = experiment: Phase II full scale Pre-REP: extended phenotype of Day 11 samples; settings: 100 μg/mL in tumor shipping medium and CM1 Pre-REP media
Method: The received tumor was separated into 2 equal portions and stored overnight similarly to the overnight incubation in phase I of testing. The chosen antibiotic condition was tested against Gentamicin Sulfate control at full scale Pre-REP according to the Day 0 Gen 2 Batch Record. TVC, viability, identity, function, and extended phenotyping data were obtained.
Both antibiotics were tested in shipping medium and CM1 at a concentration of 100 μg/mL.

E. faecalis [6] = experiment: Antibiotics on bacterial growth of inoculated tissue fragments (HTS, wash, CM1); assay type: cell-based; settings: for bacterial growth, visually assessed: inoculated tissue fragments, washed 3×, 11 days
Method: Gentamicin (50 μg/mL) • b. […] Vancomycin (100 μg/mL)

Row | SMILES | cytotoxicity / impact on Pre-REP TIL cell growth (in words) (Pre-REP TIL [1]; Day 11 of Pre-REP, quadruplicates, with 50 μg/mL gentamicin) | bacterial growth, visually assessed (S. aureus [2]; Bacterial Load High) | bacterial growth, visually assessed (S. aureus [2]; Bacterial Load Low) | bacterial growth, visually assessed (S. aureus [2]; Bacterial Load Med) | bacterial growth (summary in words) (S. aureus [2]; S. aureus, all the bacterial loads tested) | bacterial growth, visually assessed (E. faecalis [3]) | bacterial growth, visually assessed (E. faecalis [3]; listed as Vanco) | bacterial growth, visually assessed (S. aureus [4]) | bacterial growth, visually assessed (S. aureus [4]; listed as Vanco) | effect on the Pre-REP cell product (TVC, Viability, Identity, Function, Extended Phenotyping; in words) (Pre-REP TIL [5]) | cytotoxicity / impact on Pre-REP TIL cell growth (in words) (Pre-REP TIL [1]) | bacterial growth, visually assessed (E. faecalis [6]; Bacterial Load High) | bacterial growth, visually assessed (E. faecalis [6]; Bacterial Load Low) | bacterial growth, visually assessed (E. faecalis [6]; Bacterial Load Med) | bacterial growth (summary in words) (E. faecalis [6]; all the bacterial loads tested)
1 | C[C@@H]1[C@H](O)[C@@H](C)/C=C/C=C/C=C/C=C/C=C/C=C/C=C/[C@H](O[C@@H]2O[C@H](C)[C@@H](O)[C@H](N)[C@@H]2O)C[C@@H]2O[C@](O)(C[C@@H](O)C[C@@H](O)[C@H](O)CC[C@@H](O)C[C@@H](O)CC(=O)O[C@H]1C)C[C@H](O)[C@H]2C(=O)O [amphotericin B] | did not appear cytotoxic |  |  |  |  |  |  |  |  |  |  |  |  |  | 
2 | CN[C@H](CC(C)C)C(=O)N[C@H]1C(=O)N[C@@H](CC(N)=O)C(=O)N[C@H]2C(=O)N[C@H]3C(=O)N[C@H](C(=O)N[C@H](C(=O)O)c4cc(O)cc(O)c4-c4cc3ccc4O)[C@H](O)c3ccc(c(Cl)c3)Oc3cc2cc(c3O[C@@H]2O[C@H](CO)[C@@H](O)[C@H](O)[C@H]2O[C@H]2C[C@](C)(N)[C@H](O)[C@H](C)O2)Oc2ccc(cc2Cl)[C@H]1O [vancomycin] |  | No Growth | No Growth | No Growth | no observed growth | inhibited grown | No Growth | inhibited grown | No Growth | no deleterious effect | least cytotoxicity | No Growth | No Growth | No Growth | no observed growth
